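A five-concentration, 48-hour dose response in 96-well plates underlies each endpoint, interpolated linearly between surrounding concentrations. Here, GI50 denotes the concentration required for 50% inhibition of growth. TGI: concentration producing complete growth inhibition.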
What was measured:
Assay in all cases: NCI anticancer screen, dose series, 48 h
M14 melanoma = test system: M14 melanoma
SN12C renal = test system: SN12C renal
HCT-15 colon = test system: HCT-15 colon
U251 CNS = test system: U251 CNS
MOLT-4 leukemia = test system: MOLT-4 leukemia
HS 578T breast = test system: HS 578T breast
SK-MEL-5 melanoma = test system: SK-MEL-5 melanoma
OVCAR-5 ovarian = test system: OVCAR-5 ovarian
MCF7 breast = test system: MCF7 breast
MDA-MB-231 breast = test system: MDA-MB-231 breast
OVCAR-3 ovarian = test system: OVCAR-3 ovarian
HCT-116 colon = test system: HCT-116 colon
SK-MEL-2 melanoma = test system: SK-MEL-2 melanoma
SF-295 CNS = test system: SF-295 CNS
NCI-H460 lung = test system: NCI-H460 lung
MALME-3M melanoma = test system: MALME-3M melanoma
UACC-257 melanoma = test system: UACC-257 melanoma
SK-MEL-28 melanoma = test system: SK-MEL-28 melanoma
SNB-75 CNS = test system: SNB-75 CNS
T-47D breast = test system: T-47D breast
NCI-H226 lung = test system: NCI-H226 lung
MDA-MB-435 = test system: MDA-MB-435
EKVX NSCLC = test system: EKVX NSCLC
SK-OV-3 ovarian = test system: SK-OV-3 ovarian
COLO 205 colon = test system: COLO 205 colon
OVCAR-4 ovarian = test system: OVCAR-4 ovarian
CAKI-1 renal = test system: CAKI-1 renal
RXF 393 renal = test system: RXF 393 renal
SNB-19 CNS = test system: SNB-19 CNS
NCI-H522 lung = test system: NCI-H522 lung
TK-10 renal = test system: TK-10 renal
SW-620 colon = test system: SW-620 colon
A549 NSCLC = test system: A549 NSCLC
A498 renal = test system: A498 renal
SR leukemia = test system: SR leukemia
UO-31 renal = test system: UO-31 renal
PC-3 prostate = test system: PC-3 prostate
SF-539 CNS = test system: SF-539 CNS
BT-549 breast = test system: BT-549 breast
HCC-2998 colon = test system: HCC-2998 colon
786-0 renal = test system: 786-0 renal
OVCAR-8 ovarian = test system: OVCAR-8 ovarian
UACC-62 melanoma = test system: UACC-62 melanoma
NCI/ADR-RES ovarian = test system: NCI/ADR-RES ovarian
ACHN renal = test system: ACHN renal
KM12 colon = test system: KM12 colon
HOP-62 NSCLC = test system: HOP-62 NSCLC
HOP-92 NSCLC = test system: HOP-92 NSCLC
IGROV1 ovarian = test system: IGROV1 ovarian
DU-145 prostate = test system: DU-145 prostate
HL-60(TB) leukemia = test system: HL-60(TB) leukemia
LOX IMVI melanoma = test system: LOX IMVI melanoma

In the case of `COc1cc2c3c(n(CCCNC4CCCC4)c(=O)c2cc1OC)-c1cc2c(cc1C3=O)OCO2`, the GI50 (M14 melanoma) is reported as 1.48 µM, the TGI (M14 melanoma) is reported as 2.9 µM and the GI50 (SN12C renal) is reported as 1.8 µM. For the same compound, the TGI (SN12C renal) was 4.3 µM, the GI50 (HCT-15 colon) was 1.59 µM and the TGI (HCT-15 colon) was 3.43 µM. For the same compound, the GI50 (U251 CNS) was 1.27 µM, the TGI (U251 CNS) was 2.57 µM and the GI50 (MOLT-4 leukemia) was 0.0486 µM. The TGI (MOLT-4 leukemia) was 3.37 µM, the GI50 (HS 578T breast) was 19.9 µM and the TGI (HS 578T breast) was 81 µM. It also gave a GI50 (SK-MEL-5 melanoma) of 17.3 µM, a TGI (SK-MEL-5 melanoma) of 31.2 µM and a GI50 (OVCAR-5 ovarian) of 2.46 µM. The TGI (OVCAR-5 ovarian) was 5.56 µM, the GI50 (MCF7 breast) was 0.673 µM and the TGI (MCF7 breast) was 2.32 µM. The GI50 (MDA-MB-231 breast) was 1.57 µM, the TGI (MDA-MB-231 breast) was 3.29 µM and the GI50 (OVCAR-3 ovarian) was 1.64 µM. It also gave a TGI (OVCAR-3 ovarian) of 3.31 µM, a GI50 (HCT-116 colon) of 1.2 µM and a TGI (HCT-116 colon) of 2.67 µM. For the same compound, the GI50 (SK-MEL-2 melanoma) was 19 µM, the TGI (SK-MEL-2 melanoma) was 35.6 µM and the GI50 (SF-295 CNS) was 0.628 µM. The TGI (SF-295 CNS) was 21.7 µM, the GI50 (NCI-H460 lung) was 0.446 µM and the TGI (NCI-H460 lung) was 1.98 µM. For the same compound, the GI50 (MALME-3M melanoma) was 1.69 µM, the TGI (MALME-3M melanoma) was 3.27 µM and the GI50 (UACC-257 melanoma) was 15.8 µM. It also gave a TGI (UACC-257 melanoma) of 30.3 µM, a GI50 (SK-MEL-28 melanoma) of 15.8 µM and a TGI (SK-MEL-28 melanoma) of 30.6 µM. For the same compound, the GI50 (SNB-75 CNS) was 13.8 µM, the TGI (SNB-75 CNS) was 27.3 µM and the GI50 (T-47D breast) was 16.6 µM. It also gave a TGI (T-47D breast) of 36.2 µM, a GI50 (NCI-H226 lung) of 17.8 µM and a TGI (NCI-H226 lung) of 42 µM. It also gave a GI50 (MDA-MB-435) of 1.65 µM, a TGI (MDA-MB-435) of 3.19 µM and a GI50 (EKVX NSCLC) of 4.64 µM. The TGI (EKVX NSCLC) was 17 µM, the GI50 (SK-OV-3 ovarian) was 12.7 µM and the TGI (SK-OV-3 ovarian) was 26.4 µM. For the same compound, the GI50 (COLO 205 colon) was 1.35 µM, the TGI (COLO 205 colon) was 15.4 µM and the GI50 (OVCAR-4 ovarian) was 1.91 µM. The TGI (OVCAR-4 ovarian) was 3.99 µM, the GI50 (CAKI-1 renal) was 1.24 µM and the TGI (CAKI-1 renal) was 2.5 µM. It also gave a GI50 (RXF 393 renal) of 3.83 µM, a TGI (RXF 393 renal) of 15.5 µM and a GI50 (SNB-19 CNS) of 2.96 µM. It also gave a TGI (SNB-19 CNS) of 25.5 µM, a GI50 (NCI-H522 lung) of 5.26 µM and a TGI (NCI-H522 lung) of 32 µM. It also gave a GI50 (TK-10 renal) of 22 µM, a TGI (TK-10 renal) of 36.8 µM and a GI50 (SW-620 colon) of 1.09 µM. It also gave a TGI (SW-620 colon) of 2.44 µM, a GI50 (A549 NSCLC) of 7.46 µM and a TGI (A549 NSCLC) of 25.8 µM. It also gave a GI50 (A498 renal) of 15.9 µM, a TGI (A498 renal) of 29.7 µM and a GI50 (SR leukemia) of 0.133 µM. The TGI (SR leukemia) was 0.583 µM, the GI50 (UO-31 renal) was 1.66 µM and the TGI (UO-31 renal) was 4.21 µM. For the same compound, the GI50 (PC-3 prostate) was 10.3 µM, the TGI (PC-3 prostate) was 31.9 µM and the GI50 (SF-539 CNS) was 1.51 µM. For the same compound, the TGI (SF-539 CNS) was 2.98 µM, the GI50 (BT-549 breast) was 13.8 µM and the TGI (BT-549 breast) was 27.3 µM. It also gave a GI50 (HCC-2998 colon) of 3.45 µM, a TGI (HCC-2998 colon) of 15.7 µM and a GI50 (786-0 renal) of 1.61 µM. For the same compound, the TGI (786-0 renal) was 3.24 µM, the GI50 (OVCAR-8 ovarian) was 1.45 µM and the TGI (OVCAR-8 ovarian) was 2.98 µM. For the same compound, the GI50 (UACC-62 melanoma) was 13 µM, the TGI (UACC-62 melanoma) was 30.2 µM and the GI50 (NCI/ADR-RES ovarian) was 2.25 µM. For the same compound, the TGI (NCI/ADR-RES ovarian) was 15.7 µM, the GI50 (ACHN renal) was 1.49 µM and the TGI (ACHN renal) was 2.84 µM. It also gave a GI50 (KM12 colon) of 11 µM, a TGI (KM12 colon) of 25.2 µM and a GI50 (HOP-62 NSCLC) of 2.38 µM. It also gave a TGI (HOP-62 NSCLC) of 20.9 µM, a GI50 (HOP-92 NSCLC) of 12.5 µM and a TGI (HOP-92 NSCLC) of 26.1 µM. It also gave a GI50 (IGROV1 ovarian) of 1.4 µM, a TGI (IGROV1 ovarian) of 3.65 µM and a GI50 (DU-145 prostate) of 1.44 µM. For the same compound, the TGI (DU-145 prostate) was 2.82 µM, the GI50 (HL-60(TB) leukemia) was 1.02 µM and the TGI (HL-60(TB) leukemia) was 2.66 µM. It also gave a GI50 (LOX IMVI melanoma) of 1.03 µM and a TGI (LOX IMVI melanoma) of 2.33 µM.

From PubChem BioAssay (NCI)
